The results in this text go back to patent publication US11814391B2, “Macrocyclic compounds for the treatment of medical disorders” (Achillion Pharmaceuticals, Inc., priority 2018, dated 2023).

Bounds are passed on as bounds.

By IC50 is commonly meant the concentration at which inhibition is half-maximal.

Human Factor D, sequence (P00746 26-253): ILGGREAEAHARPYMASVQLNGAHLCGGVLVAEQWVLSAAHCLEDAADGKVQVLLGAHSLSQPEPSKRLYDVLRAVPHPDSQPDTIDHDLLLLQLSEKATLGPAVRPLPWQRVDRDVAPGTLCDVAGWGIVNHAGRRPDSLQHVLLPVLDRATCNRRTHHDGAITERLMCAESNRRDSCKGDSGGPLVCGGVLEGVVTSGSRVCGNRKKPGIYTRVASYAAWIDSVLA

For this experiment, the target named is Human Factor D (Homo sapiens (Human), UniProt P00746). As to the kind of experiment: Human Factor D assay. It is filed as biochemical. The settings on record: Human Factor D 80 nM, substrate Z-L-Lys-SBzl, A405; read-out: IC50 (Stars). As to the method:
The assay of Example 3 was used to determine the IC50's of the compounds. Other standard factor D inhibition assays are also available.
Human Factor D (purified from human serum, Complement Technology, Inc.) at 80 nM final concentration is incubated with test compound at various concentrations for 5 min at room temperature in 50 mM Tris, 1M NaCl, pH 7.5. A synthetic substrate Z-L-Lys-SBzI and DTNB (Ellman's reagent) are added to final concentrations of 100 μM each. Absorbance at 405 nm (A405) is recorded at 30 second intervals for 30 min using a microplate spectrophotometer. IC50 values are calculated by nonlinear regression of complement Factor D reaction rates as a function of test compound concentration.
For `CC(=O)c1nn2c3c(cc(-c4cnc(C)nc4)cc13)CCCCCCC(=O)NC[C@@]13C[C@@H](C(=O)Nc4nc(C5CC5)ccc4C)N(C(=O)C2)[C@@H]1C3` [Compound 11, (4^1R,4^3S,45^R)-1^3-acetyl-N-(6-cyclopropyl-3-methylpyridin-2-yl)-15-(2-methylpyrimidin-5-yl)-3,7-dioxo-1^1H-4^2,6-diaza-1(1,7)-indazola-4(2,5)-bicyclo[3.1.0]hexanacyclotridecaphane-4^3-carboxamide], the IC50 was less than 1 µM.

On to `CC(=O)c1nn2c3c(cc(-c4cnc(C)nc4)cc13)NCCCCCC(=O)NCC13CC(C(=O)Nc4nc(C(F)(F)F)ccc4C)N(C(=O)C2)C1C3` [Compound 58, (41R,43S,45R)-13-acetyl-N-(3-methyl-6-(trifluoromethyl)pyridin-2-yl)-15-(2-methylpyrimidin-5-yl)-3,7-dioxo-11H-42,6,13-triaza-1(1,7)-indazola-4(2,5)-bicyclo[3.1.0]hexanacyclotridecaphane-43-carboxamide], for which the IC50 was less than 1 µM.

Take `CC(=O)c1nn2c3c(cc(-c4cnc(C)nc4)cc13)CCCCCCCCO[C@@H]1CCN(C(=O)C2)[C@@H]1C(=O)NCc1cccc(Cl)c1F` [Compound 40, (4^2S,4^3R)-1^3-acetyl-N-(3-chloro-2-fluorobenzyl)-1^5-(2-methylpyrimidin-5-yl)-3-oxo-1^1H-5-oxa-1(1,7)-indazola-4(1,3)-pyrrolidinacyclotridecaphane-4^2-carboxamide]: the IC50 was less than 1 µM.

Take `CNc1cc2c3c(c1)c(C(C)=O)nn3CC(=O)N1[C@H](C(=O)Nc3nc(C(F)(F)F)ccc3C)C[C@@]3(CNC(=O)CCCCCC2)C[C@@H]13` [Compound 27, (4^1R,4^3S,4^5R)-1^3-acetyl-N-(3-methyl-6-(trifluoromethyl)pyridin-2-yl)-1^5-(methylamino)-3,7-dioxo-1^1H-4^2,6-diaza-1(1,7)-indazola-4(2,5)-bicyclo[3.1.0]hexanacyclotridecaphane-4^3-carboxamide]: the IC50 is less than 1 µM.

For the compound `CC(=O)c1nn2c3c(cc(-c4cnc(C)nc4)cc13)CNC(=O)CCCCOC[C@@]13C[C@@H](C(=O)Nc4nc(C(F)(F)F)ccc4C)N(C(=O)C2)[C@@H]1C3` [Compound 33, (4^1R,4^3S,4^5S)-1^3-acetyl-N-(3-methyl-6-(trifluoromethyl)pyridin-2-yl)-1^5-(2-methylpyrimidin-5-yl)-3,11-dioxo-1^1H-6-oxa-4^2,12-diaza-1(1,7)-indazola-4(2,5)-bicyclo[3.1.0]hexanacyclotridecaphane-4^3-carboxamide], the IC50 is less than 1 µM.

With `CC(=O)c1nn2c3c(cc(CC(C)C)cc13)CCCCCCC(=O)NC[C@@]13C[C@@H](C(=O)Nc4nc(C(F)(F)F)ccc4C)N(C(=O)C2)[C@@H]1C3` [Compound 28, (4^1R,4^3S,4^5R)-1^3-acetyl-1^5-isobutyl-N-(3-methyl-6-(trifluoromethyl)pyridin-2-yl)-3,7-dioxo-1^1H-4^2,6-diaza-1(1,7)-indazola-4(2,5)-bicyclo[3.1.0]hexanacyclotridecaphane-4^3-carboxamide], the IC50 was less than 1 µM.

`CC(=O)c1nn2c3c(cc(-c4cnc(C)nc4)cc13)C/C=C/CCCC(=O)N(C)C[C@@]13C[C@@H](C(=O)Nc4cc(F)cc(Br)n4)N(C(=O)C2)[C@@H]1C3` [Compound 13, (4^1R,4^3S,4^5R,E)-1^3-acetyl-N-(6-bromo-4-fluoropyridin-2-yl)-6-methyl-1^5-(2-methylpyrimidin-5-yl)-3,7-dioxo-1^1H-4^2,6-diaza-1(1,7)-indazola-4(2,5)-bicyclo[3.1.0]hexanacyclotridecaphan-11-ene-4^3-carboxamide]: the IC50 is less than 1 µM.

Turning to `CC(=O)c1nn2c3c(cc(-c4cnc(C)nc4)cc13)CCCCC[C@@H](C)C(=O)NC[C@@]13C[C@@H](C(=O)Nc4nc(C(F)(F)F)ccc4C)N(C(=O)C2)[C@@H]1C3` [Compound 8, (4^1R,4^3S,4^5R,8R)-1^3-acetyl-8-methyl-N-(3-methyl-6-(trifluoromethyl)pyridin-2-yl)-1^5-(2-methylpyrimidin-5-yl)-3,7-dioxo-1^1H-4^2,6-diaza-1(1,7)-indazola-4(2,5)-bicyclo[3.1.0]hexanacyclotridecaphane-4^3-carboxamide], the IC50 was less than 1 µM.

In the case of `COc1cc2c3c(c1)c(C(C)=O)nn3CC(=O)N1[C@H](C(=O)Nc3nc(C(F)(F)F)ccc3C)C[C@@]3(CNC(=O)CCCCCC2)C[C@@H]13` [Compound 6, (4^1R,4^3S,4^5R)-1^3-acetyl-1^5-methoxy-N-(3-methyl-6-(trifluoromethyl)pyridin-2-yl)-3,7-dioxo-1^1H-4^2,6-diaza-1(1,7)-indazola-4(2,5)-bicyclo[3.1.0]hexanacyclotridecaphane-4^3-carboxamide], the IC50 was less than 1 µM.

In the case of `CC(=O)c1nn2c3c(cc(C)cc13)CCCCCCC(=O)NC[C@@]13C[C@@H](C(=O)Nc4nc(C(F)(F)F)ccc4C)N(C(=O)C2)[C@@H]1C3` [Compound 18, (4^1R,4^3S,4^5R)-1^3-acetyl-1^5-methyl-N-(3-methyl-6-(trifluoromethyl)pyridin-2-yl)-3,7-dioxo-1^1H-4^2,6-diaza-1(1,7)-indazola-4(2,5)-bicyclo[3.1.0]hexanacyclotridecaphane-4^3-carboxamide], the concentration for half-maximal inhibition (IC50) is less than 1 µM.

In the case of `CC(=O)c1nn2c3c(cc(-c4cnc(C)nc4)cc13)CCCCC[C@@H](C)C(=O)NC[C@@]13C[C@@H](C(=O)Nc4cc(F)cc(Br)n4)N(C(=O)C2)[C@@H]1C3` [Compound 9, (4^1R,4^3S,4^5R,8R)-1^3-acetyl-N-(6-bromo-4-fluoropyridin-2-yl)-8-methyl-1^5-(2-methylpyrimidin-5-yl)-3,7-dioxo-1^1H-4^2,6-diaza-1(1,7)-indazola-4(2,5)-bicyclo[3.1.0]hexanacyclotridecaphane-4^3-carboxamide], the IC50 is less than 1 µM.

As to `CC(=O)c1nn2c3c(cc(-c4cnc(C)nc4)cc13)CCCC[C@@H](C)CC(=O)NC[C@@]13C[C@@H](C(=O)Nc4nc(C(F)(F)F)ccc4C)N(C(=O)C2)[C@@H]1C3` [Compound 34, (4^1R,4^3S,4^5R,9R)-1^3-acetyl-9-methyl-N-(3-methyl-6-(trifluoromethyl)pyridin-2-yl)-1^5-(2-methylpyrimidin-5-yl)-3,7-dioxo-1^1H-4^2,6-diaza-1(1,7)-indazola-4(2,5)-bicyclo[3.1.0]hexanacyclotridecaphane-4^3-carboxamide], the IC50 was less than 1 µM.

In the case of `CC(=O)c1nn2c3c(cc(-c4cnc(C)nc4)cc13)CCCCCCCCCC[C@@H](C(=O)Nc1nc(Br)ccc1C)N(C)C(=O)C2` [Compound 56, (S)-2-acetyl-N-(6-bromo-3-methylpyridin-2-yl)-17-methyl-4-(2-methylpyrimidin-5-yl)-18-oxo-6,7,8,9,10,11,12,13,14,15,16,17,18,19-tetradecahydro-[1,4]diazacycloheptadecino[16,17,1-hi]indazole-16-carboxamide], the IC50 was greater than 10 µM.

As to `CC(=O)c1nn2c3c(cc(-c4cnc(C)nc4)cc13)CCCCCCCCCCCO[C@@H]1CCN(C(=O)C2)[C@@H]1C(=O)NCc1cccc(Cl)c1F` [Compound 54, (42S,43R)-13-acetyl-N-(3-chloro-2-fluorobenzyl)-15-(2-methylpyrimidin-5-yl)-3-oxo-11H-5-oxa-1(1,7)-indazola-4(1,3)-pyrrolidinacyclohexadecaphane-42-carboxamide], the IC50 is less than 1 µM.
